Target: T1, Recombinant human cathepsin A (Homo sapiens, UniProt P10619)
T1 construct: Recombinant human cathepsin A (residues 29-480, with a C-terminal 10-His tag); 10-His (C); purchased R&D Systems 1049-SE
T1 sequence (P10619 29-326 limits assumed): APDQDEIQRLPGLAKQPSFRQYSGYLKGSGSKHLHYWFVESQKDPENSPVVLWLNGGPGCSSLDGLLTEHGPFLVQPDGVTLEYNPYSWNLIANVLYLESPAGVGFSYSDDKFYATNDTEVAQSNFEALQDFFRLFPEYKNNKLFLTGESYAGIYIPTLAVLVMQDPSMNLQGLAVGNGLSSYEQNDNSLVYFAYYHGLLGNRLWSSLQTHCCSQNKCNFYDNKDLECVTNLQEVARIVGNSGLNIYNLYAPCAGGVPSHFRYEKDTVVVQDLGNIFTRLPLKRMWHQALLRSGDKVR
T1 sequence (P10619 327-480 limits assumed): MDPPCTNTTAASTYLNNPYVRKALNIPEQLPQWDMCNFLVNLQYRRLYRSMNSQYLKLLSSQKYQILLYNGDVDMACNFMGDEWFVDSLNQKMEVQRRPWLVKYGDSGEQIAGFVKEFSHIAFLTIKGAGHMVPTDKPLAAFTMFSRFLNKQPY
Assay: Cathepsin A inhibitory activity
Type: biochemical
Conditions: activated recombinant human cathepsin A 833 ng/ml, Bodipy FL-labeled bradykinin 2 μM, pH 5.5, 15 min room temperature
Description: a) Cathepsin a Inhibitory Activity
Recombinant human cathepsin A (residues 29-480, with a C-terminal 10-His tag; R&D Systems, #1049-SE) was proteolytically activated with recombinant human cathepsin L (R&D Systems, #952-CY). Briefly, cathepsin A was incubated at 10 μg/ml with cathepsin L at 1 μg/ml in activation buffer (25 mM 2-(morpholin-4-yl)-ethanesulfonic acid (MES), pH 6.0, containing 5 mM dithiothreitol (DTT)) for 15 min at 37° C. Cathepsin L activity was then stopped by the addition of the cysteine protease inhibitor E-64 (N-(trans-epoxysuccinyl)-L-leucine-4-guanidinobutylamide; Sigma-Aldrich, #E3132; dissolved in activation buffer/DMSO) to a final concentration of 10 μM.
The activated cathepsin A was diluted in assay buffer (25 mM MES, pH 5.5, containing 5 mM DTT) and mixed with the test compound (dissolved in assay buffer containing (v/v) 3% DMSO) or, in the control experiments, with the vehicle in a multiple assay plate. After incubation for 15 min at room temperature, as substrate then bradykinin carrying an N-Terminal®Bodipy FL (4,4-difluoro-5,7-dimethyl-4-bora-3a,4a-diaza-s-indacene-3-propionyl) label (JPT Peptide Technologies GmbH; dissolved in assay buffer) was added to the mixture. The final concentration of cathepsin A was 833 ng/ml and the final concentration of labeled bradykinin 2 μM. After incubation for 15 min at room temperature the reaction was stopped by the addition of stop buffer (130 mM 2-(4-(2-hydroxy-ethyl)-piperazin-1-yl)-ethanesulfonic acid, pH 7.4, containing (v/v) 0.013%®Triton X-100, 0.13% Coating Reagent 3 (Caliper Life Sciences), 6.5% DMSO and 20 μM ebelactone B (Sigma, #E0886)).
Uncleaved substrate and product were then separated by a microfluidic capillary electrophoresis on a LabChip® 3000 Drug Discovery System (12-Sipper-Chip; Caliper Life Sciences) and quantified by determination of the respective peak areas. Substrate turnover was calculated by dividing product peak area by the sum of substrate and product peak areas, and the enzyme activity and the inhibitory effect of the test compound thus quantified. From the percentage of inhibition of cathepsin A activity observed with the test compound at several concentrations, the inhibitory concentration IC50, i.e. the concentration which effects 50% inhibition of enzyme activity was, calculated.

Question: `Cc1ccccc1[C@H](CC(=O)O)NC(=O)c1cc(NC[C@H](O)C(C)(C)C)n(-c2ccccc2)n1` (single isomer, unassigned) [Example 59] was tested. Which IC50 did it give?
Answer: 24.9 nM

Question: How did the IC50 turn out when `Cc1ccccc1[C@H](CC(=O)O)NC(=O)c1cc(NC[C@@H](O)C(C)(C)C)n(-c2ccccc2)n1` (single isomer, unassigned) [Example 60] was run?
Answer: 11.3 nM

Question: With `Cc1ccccc1[C@H](CC(=O)O)NC(=O)c1cc(N)n(-c2ccccc2)n1` [Example 1, (S)-3-[(5-Amino-1-phenyl-1H-pyrazole-3-carbonyl)-amino]-3-o-tolyl-propionic acid] as the compound, how does the IC50 read?
Answer: 25.1 nM

Question: How did the IC50 turn out when `Nc1cc(C(=O)NC(CC(=O)O)c2ccc(-c3ccc(F)cc3)cc2)nn1-c1ccccc1` (stereo not drawn) [Example 2, 3-[(5-Amino-1-phenyl-1H-pyrazole-3-carbonyl)-amino]-3-(4′-fluoro-biphenyl-4-yl)-propionic acid] was run?
Answer: 53.2 nM

Question: `Cc1ccccc1[C@H](CC(=O)O)NC(=O)c1cc(N)n(-c2ccccc2F)n1` [Example 3, (S)-3-{[5-Amino-1-(2-fluoro-phenyl)-1H-pyrazole-3-carbonyl]-amino}-3-o-tolyl-propionic acid] was tested. Which IC50 did it give?
Answer: 13.8 nM

Question: `Nc1cc(C(=O)NC(CC(=O)O)c2ccc(-c3ccc(F)cc3)cc2)nn1-c1ccccc1F` (stereo not drawn) [Example 4, 3-{[5-Amino-1-(2-fluoro-phenyl)-1H-pyrazole-3-carbonyl]-amino}-3-(4′-fluoro-biphenyl-4-yl)-propionic acid] was tested. Which IC50 did it give?
Answer: 18.5 nM

Question: Which IC50 does the source give for `Cc1ccccc1[C@H](CC(=O)O)NC(=O)c1nn(-c2ccccc2F)c(N)c1C#N` [Example 5, (S)-3-{[5-Amino-4-cyano-1-(2-fluoro-phenyl)-1H-pyrazole-3-carbonyl]-amino}-3-o-tolyl-propionic acid] here?
Answer: 18.7 nM

Question: `Cc1ccccc1[C@H](CC(=O)O)NC(=O)c1cc(N2CCCC2)n(-c2ccccc2)n1` [Example 6, (S)-3-[(1-Phenyl-5-pyrrolidin-1-yl-1H-pyrazole-3-carbonyl)-amino]-3-o-tolyl-propionic acid] was tested. Which IC50 did it give?
Answer: 15.6 nM

Question: `Nc1cc(C(=O)NC(CC(=O)O)c2ccc(-c3ccccn3)cc2)nn1-c1ccccc1F` (stereo not drawn) [Example 7, 3-{[5-Amino-1-(2-fluoro-phenyl)-1H-pyrazole-3-carbonyl]-amino}-3-(4-pyridin-2-yl-phenyl)-propionic acid] was tested. Which IC50 did it give?
Answer: 20.4 nM

Question: For `Nc1cc(C(=O)N[C@@H](CC(=O)O)c2cccc(Cl)c2Cl)nn1-c1ccccc1F` [Example 8, (S)-3-{[5-Amino-1-(2-fluoro-phenyl)-1H-pyrazole-3-carbonyl]-amino}-3-(2,3-dichloro-phenyl)-propionic acid], which IC50 is on record?
Answer: 23.2 nM

Question: For `Nc1cc(C(=O)NC(CC(=O)O)c2cc(Cl)ccc2Cl)nn1-c1ccccc1F` (stereo not drawn) [Example 9, 3-{[5-Amino-1-(2-fluoro-phenyl)-1H-pyrazole-3-carbonyl]-amino}-3-(2,5-dichloro-phenyl)-propionic acid], which IC50 is on record?
Answer: 200 nM

Question: With `Cc1ccccc1[C@H](CC(=O)O)NC(=O)c1cc(NC(=O)Nc2ccccc2)n(-c2ccccc2)n1` [Example 10, (S)-3-{[1-Phenyl-5-(3-phenyl-ureido)-1H-pyrazole-3-carbonyl]-amino}-3-o-tolyl-propionic acid] as the compound, how does the IC50 read?
Answer: 14 nM

Question: `Cc1ccccc1[C@H](CC(=O)O)NC(=O)c1cc(NS(C)(=O)=O)n(-c2ccccc2)n1` [Example 11, (S)-3-[(5-Methanesulfonylamino-1-phenyl-1H-pyrazole-3-carbonyl)-amino]-3-o-tolyl-propionic acid] was tested. Which IC50 did it give?
Answer: 25.2 nM

Question: With `Cc1ccccc1[C@H](CC(=O)O)NC(=O)c1cc(N2CCCS2(=O)=O)n(-c2ccccc2F)n1` [Example 12, (S)-3-{[5-(1,1-Dioxo-1lambda6-isothiazolidin-2-yl)-1-(2-fluoro-phenyl)-1H-pyrazole-3-carbonyl]-amino}-3-o-tolyl-propionic acid] as the compound, how does the IC50 read?
Answer: 13.6 nM

Question: `Cc1ccccc1[C@H](CC(=O)O)NC(=O)c1cc(N2CCCC2)n(-c2ccccc2F)n1` [Example 13, (S)-3-{[1-(2-Fluoro-phenyl)-5-pyrrolidin-1-yl-1H-pyrazole-3-carbonyl]-amino}-3-o-tolyl-propionic acid] was tested. Which IC50 did it give?
Answer: 8.4 nM

Question: With `Cc1ccccc1[C@H](CC(=O)O)NC(=O)c1cc(N2CCCC2=O)n(-c2ccccc2F)n1` [Example 14, (S)-3-{[1-(2-Fluoro-phenyl)-5-(2-oxo-pyrrolidin-1-yl)-1H-pyrazole-3-carbonyl]-amino}-3-o-tolyl-propionic acid] as the compound, how does the IC50 read?
Answer: 25.8 nM

Question: For `Cc1ccccc1[C@H](CC(=O)O)NC(=O)c1cc(N2CCCC2=O)n(-c2ccccc2)n1` [Example 15, (S)-3-{[5-(2-Oxo-pyrrolidin-1-yl)-1-phenyl-1H-pyrazole-3-carbonyl]-amino}-3-o-tolyl-propionic acid], which IC50 is on record?
Answer: 25.5 nM

Question: Which IC50 does the source give for `Cc1ccccc1[C@H](CC(=O)O)NC(=O)c1cc(N2CCCS2(=O)=O)n(-c2ccccc2)n1` [Example 16, (S)-3-{[5-(1,1-Dioxo-1lambda6-isothiazolidin-2-yl)-1-phenyl-1H-pyrazole-3-carbonyl]-amino}-3-o-tolyl-propionic acid] here?
Answer: 17.9 nM

Question: Which IC50 does the source give for `Cc1ccccc1[C@H](CC(=O)O)NC(=O)c1cc(N2CCCCC2=O)n(-c2ccccc2)n1` [Example 17, (S)-3-{[5-(2-Oxo-piperidin-1-yl)-1-phenyl-1H-pyrazole-3-carbonyl]-amino}-3-o-tolyl-propionic acid] here?
Answer: 64.5 nM

Question: How did the IC50 turn out when `Cc1ccccc1[C@H](CC(=O)O)NC(=O)c1cc(N2CCCCC2=O)n(-c2ccccc2F)n1` [Example 18, (S)-3-{[1-(2-Fluoro-phenyl)-5-(2-oxo-piperidin-1-yl)-1H-pyrazole-3-carbonyl]-amino}-3-o-tolyl-propionic acid] was run?
Answer: 45.6 nM

Question: For `Cc1ccccc1[C@H](CC(=O)O)NC(=O)c1cc(Nc2ccccn2)n(-c2ccccc2)n1` [Example 19, (S)-3-{[1-Phenyl-5-(pyridin-2-ylamino)-1H-pyrazole-3-carbonyl]-amino}-3-o-tolyl-propionic acid], which IC50 is on record?
Answer: 49.7 nM

Question: `O=C(O)CC(NC(=O)c1cc2[nH]c3ccccc3n2n1)c1ccc(F)c(F)c1` (stereo not drawn) [Example 20, 3-[(4H-Benzo[4,5]imidazo[1,2-b]pyrazole-2-carbonyl)-amino]-3-(3,4-difluoro-phenyl)-propionic acid] was tested. Which IC50 did it give?
Answer: 3280 nM

Question: For `N#Cc1ccc(C(CC(=O)O)NC(=O)c2cc3[nH]c4ccccc4n3n2)cc1` (stereo not drawn) [Example 21, 3-[(4H-Benzo[4,5]imidazo[1,2-b]pyrazole-2-carbonyl)-amino]-3-(4-cyano-phenyl)-propionic acid], which IC50 is on record?
Answer: 2390 nM

Question: How did the IC50 turn out when `O=C(O)CC(NC(=O)c1cc2[nH]c3ccccc3n2n1)c1cccc2c1OCO2` (stereo not drawn) [Example 22, 3-Benzo[1,3]dioxol-4-yl-3-[(4H-benzo[4,5]imidazo[1,2-b]pyrazole-2-carbonyl)-amino]-propionic acid] was run?
Answer: 1110 nM

Question: For `O=C(O)CC(NC(=O)c1cc2[nH]c3ccccc3n2n1)c1cccc(F)c1` (stereo not drawn) [Example 23, 3-[(4H-Benzo[4,5]imidazo[1,2-b]pyrazole-2-carbonyl)-amino]-3-(3-fluoro-phenyl)-propionic acid], which IC50 is on record?
Answer: 3120 nM

Question: With `O=C(O)CC(NC(=O)c1cc2[nH]c3ccccc3n2n1)c1ccccc1F` (stereo not drawn) [Example 24, 3-[(4H-Benzo[4,5]imidazo[1,2-b]pyrazole-2-carbonyl)-amino]-3-(2-fluoro-phenyl)-propionic acid] as the compound, how does the IC50 read?
Answer: 1750 nM

Question: `O=C(O)CC(NC(=O)c1cc2[nH]c3ccccc3n2n1)c1cccc(Oc2ccccc2)c1` (stereo not drawn) [Example 26, 3-[(4H-Benzo[4,5]imidazo[1,2-b]pyrazole-2-carbonyl)-amino]-3-(3-phenoxy-phenyl)-propionic acid] was tested. Which IC50 did it give?
Answer: 2610 nM

Reference: US8962671B2, “Amino-substituted 3-heteroaroylamino-propionic acid derivatives and their use as pharmaceuticals” (Sanofi, priority 2011, dated 2015)
